Data taken from patent publication US20260356817A1, “AMINOPYRIMIDINE AND AMINOTRIAZINE DERIVATIVES AS MYC PROTEIN MODULATORS” (Sanford Burnham Prebys Medical Discovery Institute, priority 2022, published 2026).
Like-named read-outs stand apart in the source and are kept apart here.

Tested on: Myc
Assay: Myc inhibition assay: Myc expression per cell by anti-Myc immunofluorescence, high-content imaging
Type: cell-based, human (patient-derived medulloblastoma xenograft cells)
Settings: medulloblastoma PDX cells, 4 h
From the text: To identify Myc inhibitors, cells isolated from patient-derived orthotopic xenografts (PDXs) from patients with Myc-driven medulloblastoma were used. Specifically, PDX cells were propagated by transplantation directly into the cerebellum of immunodeficient (NSG) mice and were never passaged in vitro in order to maintain properties of the tumor from which they were derived. Tumor tissues were isolated from tumor-bearing animals, dissociated into a single-cell suspension, resuspended in serum-free media, and immediately plated in 384 well plates. After overnight recovery, compounds were added to each well, and cells were incubated for 4 hours before being fixed and stained with anti-Myc antibodies and with DAPI to label nuclei. Cells were then analyzed using high-content imaging to determine the levels of Myc expression per cell and IC50 values of the compounds.

[1] = Table 1, read-out: IC50 (Myc inhibition)
[2] = Table 2, read-out: MYC Inhibition IC50

Row | IC50 [1] [µM] | IC50 [2] [µM] | Structure (SMILES)
1 | 0.2 to 1 | 0.2 to 1 | CC(C)(C)NS(=O)(=O)c1cccc(Nc2nccc(-c3ccc4[nH]cnc4c3)n2)c1 [Compound 32, 3-((4-(1H-benzo[d]imidazol-5-yl)pyrimidin-2-yl)amino)-N-(tert-butyl)benzenesulfonamide]
2 | 0.2 to 1 | 0.2 to 1 | Cc1cccc(Nc2nccc(-c3ccc4[nH]cnc4c3)n2)c1 [Compound 40, 4-(1H-benzo[d]imidazol-5-yl)-N-(m-tolyl)pyrimidin-2-amine]
3 | < 0.2 | < 0.2 | Cn1cnc2ccc(-c3ccnc(Nc4cccc(C(F)(F)F)c4)n3)cc21 [Compound 41, 4-(1-methyl-1H-benzo[d]imidazol-6-yl)-N-(3-(trifluoromethyl)phenyl)pyrimidin-2-amine]
4 | < 0.2 | < 0.2 | c1ccc(-c2cccc(Nc3nccc(-c4ccc5[nH]cnc5c4)n3)c2)nc1 [Compound 44, 4-(1H-benzo[d]imidazol-5-yl)-N-(3-(pyridin-2-yl)phenyl)pyrimidin-2-amine]
5 | 0.2 to 1 | 0.2 to 1 | COCCNc1cccc(Nc2nccc(-c3ccc4[nH]cnc4c3)n2)c1 [Compound 47, N^1-(4-(1H-benzo[d]imidazol-5-yl)pyrimidin-2-yl)-N^3-(2-methoxyethyl)benzene-1,3-diamine]
6 | 1 to 10 | 1 to 10 | FC(F)(F)c1cccc(Nc2nccc(-c3ccc4[nH]cnc4c3)n2)c1 [Compound 50]
7 | 1 to 10 | 1 to 10 | Cc1ccccc1Nc1nccc(-c2ccc3[nH]cnc3c2)n1 [Compound 51, 4-(1H-benzo[d]imidazol-5-yl)-N-(o-tolyl)pyrimidin-2-amine]
8 | 1 to 10 | 1 to 10 | FC(F)(F)c1cccc(Nc2cc(-c3ccc4[nH]cnc4c3)ccn2)c1 [Compound 52, 4-(1H-benzo[d]imidazol-5-yl)-N-(3-(trifluoromethyl)phenyl)pyridin-2-amine]
9 | 1 to 10 | 1 to 10 | CC(C)(C)c1ccccc1Nc1nccc(-c2ccc3[nH]cnc3c2)n1 [Compound 53, 4-(1H-benzo[d]imidazol-5-yl)-N-(2-(tert-butyl)phenyl)pyrimidin-2-amine]
10 | 0.2 to 1 | 0.2 to 1 | c1ccc2cc(Nc3nccc(-c4ccc5[nH]cnc5c4)n3)ccc2c1 [Compound 55, 4-(1H-benzo[d]imidazol-5-yl)-N-(naphthalen-2-yl)pyrimidin-2-amine]
11 | 0.2 to 1 | 0.2 to 1 | c1cc(-c2ccc3[nH]cnc3c2)nc(Nc2cnoc2)n1 [Compound 56, N-(4-(1H-benzo[d]imidazol-5-yl)pyrimidin-2-yl)isoxazol-4-amine]
12 | 1 to 10 | 1 to 10 | c1cc(Nc2nccc(-c3ccc4[nH]cnc4c3)n2)[nH]n1 [Compound 57, 4-(1H-benzo[d]imidazol-5-yl)-N-(1H-pyrazol-5-yl)pyrimidin-2-amine]
13 | 0.2 to 1 | 0.2 to 1 | Cc1ccc(Nc2nccc(-c3ccc4[nH]cnc4c3)n2)cc1C [Compound 60, 4-(1H-benzo[d]imidazol-5-yl)-N-(3,4-dimethylphenyl)pyrimidin-2-amine]
14 | 1 to 10 | 1 to 10 | FC(F)(F)c1ccccc1Nc1nccc(-c2ccc3[nH]cnc3c2)n1 [Compound 62, 4-(1H-benzo[d]imidazol-5-yl)-N-(2-(trifluoromethyl)phenyl)pyrimidin-2-amine]
15 | 0.2 to 1 | 0.2 to 1 | c1cc(Nc2nccc(-c3ccc4[nH]cnc4c3)n2)cc(N2CCCCC2)c1 [Compound 65, 4-(1H-benzo[d]imidazol-5-yl)-N-(3-(piperidin-1-yl)phenyl)pyrimidin-2-amine]
16 | 1 to 10 | 1 to 10 | Fc1ccccc1Nc1nccc(-c2ccc3[nH]cnc3c2)n1 [Compound 66, 4-(1H-benzo[d]imidazol-5-yl)-N-(2-fluorophenyl)pyrimidin-2-amine]
17 | < 0.2 | < 0.2 | c1ccc(-c2cccc(Nc3nccc(-c4ccc5[nH]cnc5c4)n3)c2)cc1 [Compound 70, N-([1,1′-biphenyl]-3-yl)-4-(1H-benzo[d]imidazol-5-yl)pyrimidin-2-amine]

Further lines, the molecule ahead of its results:

Row | Structure (SMILES) | IC50 [1] [µM] | IC50 [2] [µM]
18 | Cc1ccccc1-c1cccc(Nc2nccc(-c3ccc4[nH]cnc4c3)n2)c1 [Compound 33, 4-(1H-benzo[d]imidazol-5-yl)-N-(2′-methyl-[1,1′-biphenyl]-3-yl)pyrimidin-2-amine] | 0.2 to 1 | 0.2 to 1
19 | Cn1cnc2cc(-c3ccnc(Nc4cccc(C(F)(F)F)c4)n3)ccc21 [Compound 34, 4-(1-methyl-1H-benzo[d]imidazol-5-yl)-N-(3-(trifluoromethyl)phenyl)pyrimidin-2-amine] | 1 to 10 | 1 to 10
20 | c1ccc(-n2cc(Nc3nccc(-c4ccc5[nH]cnc5c4)n3)cn2)nc1 [Compound 35, 4-(1H-benzo[d]imidazol-5-yl)-N-(1-(pyridin-2-yl)-1H-pyrazol-4-yl)pyrimidin-2-amine] | < 0.2 | < 0.2
21 | O=S(=O)(Nc1ccc(F)cc1)c1cccc(Nc2nccc(-c3ccc4[nH]cnc4c3)n2)c1 [Compound 36, 3-((4-(1H-benzo[d]imidazol-5-yl)pyrimidin-2-yl)amino)-N-(4-fluorophenyl)benzenesulfonamide] | 0.2 to 1 | 0.2 to 1
22 | c1ccc(Cn2cc(Nc3nccc(-c4ccc5[nH]cnc5c4)n3)cn2)cc1 [Compound 37, 4-(1H-benzo[d]imidazol-5-yl)-N-(1-benzyl-1H-pyrazol-4-yl)pyrimidin-2-amine] | 0.2 to 1 | 0.2 to 1
23 | O=S(=O)(Nc1cccc(Nc2nccc(-c3ccc4[nH]cnc4c3)n2)c1)c1ccccc1 [Compound 38, N-(3-((4-(1H-benzo[d]imidazol-5-yl)pyrimidin-2-yl)amino)phenyl)benzenesulfonamide] | 0.2 to 1 | 0.2 to 1
24 | c1ccc(-n2cc(Nc3nccc(-c4ccc5[nH]cnc5c4)n3)cn2)cc1 [Compound 39, 4-(1H-benzo[d]imidazol-5-yl)-N-(1-phenyl-1H-pyrazol-4-yl)pyrimidin-2-amine] | < 0.2 | < 0.2
25 | CNC(=O)c1cccc(Nc2nccc(-c3ccc4[nH]cnc4c3)n2)c1 [Compound 42, 3-((4-(1H-benzo[d]imidazol-5-yl)pyrimidin-2-yl)amino)-N-methylbenzamide] | 0.2 to 1 | 0.2 to 1
26 | c1cc(Nc2nccc(-c3ccc4[nH]cnc4c3)n2)cc(-c2ccncc2)c1 [Compound 43, 4-(1H-benzo[d]imidazol-5-yl)-N-(3-(pyridin-4-yl)phenyl)pyrimidin-2-amine] | < 0.2 | < 0.2
27 | c1cncc(-c2cccc(Nc3nccc(-c4ccc5[nH]cnc5c4)n3)c2)c1 [Compound 45, 4-(1H-benzo[d]imidazol-5-yl)-N-(3-(pyridin-3-yl)phenyl)pyrimidin-2-amine] | < 0.2 | < 0.2
28 | NS(=O)(=O)c1cccc(Nc2nccc(-c3ccc4[nH]cnc4c3)n2)c1 [Compound 46, 3-((4-(1H-benzo[d]imidazol-5-yl)pyrimidin-2-yl)amino)benzenesulfonamide] | < 0.2 | < 0.2
29 | Cc1cc(Nc2nccc(-c3ccc4[nH]cnc4c3)n2)ccc1F [Compound 48, 4-(1H-benzo[d]imidazol-5-yl)-N-(4-fluoro-3-methylphenyl)pyrimidin-2-amine] | 0.2 to 1 | 0.2 to 1
30 | Clc1cc(Cl)cc(Nc2nccc(-c3ccc4[nH]cnc4c3)n2)c1 [Compound 49, 4-(1H-benzo[d]imidazol-5-yl)-N-(3,5-dichlorophenyl)pyrimidin-2-amine] | 1 to 10 | 1 to 10
31 | CC(C)c1nnc(Nc2nccc(-c3ccc4[nH]cnc4c3)n2)[nH]1 [Compound 54, 4-(1H-benzo[d]imidazol-5-yl)-N-(5-isopropyl-4H-1,2,4-triazol-3-yl)pyrimidin-2-amine] | 1 to 10 | 1 to 10
32 | FC(F)(F)c1nnc(Nc2nccc(-c3ccc4[nH]cnc4c3)n2)s1 [Compound 58, N-(4-(1H-benzo[d]imidazol-5-yl)pyrimidin-2-yl)-5-(trifluoromethyl)-1,3,4-thiadiazol-2-amine] | 1 to 10 | 1 to 10
33 | COc1ccccc1Nc1nccc(-c2ccc3[nH]cnc3c2)n1 [Compound 61, 4-(1H-benzo[d]imidazol-5-yl)-N-(2-methoxyphenyl)pyrimidin-2-amine] | 1 to 10 | 1 to 10
34 | O=C1CNCCN1c1cccc(Nc2nccc(-c3ccc4[nH]cnc4c3)n2)c1 [Compound 63, 1-(3-((4-(1H-benzo[d]imidazol-5-yl)pyrimidin-2-yl)amino)phenyl)piperazin-2-one] | 1 to 10 | 1 to 10
35 | CC(C)c1ccccc1Nc1nccc(-c2ccc3[nH]cnc3c2)n1 [Compound 64, 4-(1H-benzo[d]imidazol-5-yl)-N-(2-isopropylphenyl)pyrimidin-2-amine] | 1 to 10 | 1 to 10
36 | NC(=O)c1cccc(Nc2nccc(-c3ccc4[nH]cnc4c3)n2)c1 [Compound 67, 3-((4-(1H-benzo[d]imidazol-5-yl)pyrimidin-2-yl)amino)benzamide] | 0.2 to 1 | 0.2 to 1
37 | c1cc(-c2ccc3[nH]cnc3c2)nc(Nc2ccsc2)n1 [Compound 68, 4-(1H-benzo[d]imidazol-5-yl)-N-(thiophen-3-yl)pyrimidin-2-amine] | 0.2 to 1 | 0.2 to 1
38 | Clc1cccc(Nc2nccc(-c3ccc4[nH]cnc4c3)n2)c1 [Compound 69, 4-(1H-benzo[d]imidazol-5-yl)-N-(3-chlorophenyl)pyrimidin-2-amine] | < 0.2 | < 0.2
39 | CN1CCN(c2cccc(Nc3nccc(-c4ccc5[nH]cnc5c4)n3)c2)CC1 [Compound 71, 4-(1H-benzo[d]imidazol-5-yl)-N-(3-(4-methylpiperazin-1-yl)phenyl)pyrimidin-2-amine] | 0.2 to 1 | 0.2 to 1
